As usually defined, the EC50 is the concentration giving half of the maximal effect. By IC50 is commonly meant the point on the concentration scale where inhibition reaches its midpoint.

Bounds are passed on as bounds.

The values that follow come from patent US11267825B2 (AICURIS GMBH & CO. KG, priority 2017, dated 2022).

One test deals with HBV. Put plainly: Determination of HBV DNA from the supernatants of HepAD38 cells (anti-HBV activity). Type of test: cell-based, hepatitis B virus. As to conditions: Hepatitis B virus, 144 h; HBV DNA in HepAD38 supernatant at day 6; read-out: Cell Activity (EC50). The essentials: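 EC50 values were obtained by non-linear regression of HBV DNA copy numbers measured by qPCR against pCH-9/3091 plasmid standards. The DNA came from filtered supernatants collected on day 6. Before that, tetracycline-withdrawn HepAD38 cells had been exposed to serial half-log compound dilutions, with tetracycline-treated cells as the non-producing control.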

A further test addresses HBV core protein (UniProt P03146). Type of test: biochemical. The conditions noted are these: read-out: Assembly Activity (IC50); BODIPY-FL labelled core protein, assembly started with NaCl, read after 6 min. The essentials: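 Compounds tested at 8 concentrations in 0.5-log steps from 100, 31.6 or 10 μM against 1.0–2.0 μM BODIPY-FL-labelled Cys150 core dimers (residues 1–149), 50 mM HEPES pH 7.5. NaCl ([…] final) triggered assembly; quenching read at 6 min, 477/525 nm, with 2.5 M and 0 M NaCl as controls; EC50 by nonlinear fit.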

HBV core protein, sequence (P03146 whole entry, looked up, the tested form may be a part): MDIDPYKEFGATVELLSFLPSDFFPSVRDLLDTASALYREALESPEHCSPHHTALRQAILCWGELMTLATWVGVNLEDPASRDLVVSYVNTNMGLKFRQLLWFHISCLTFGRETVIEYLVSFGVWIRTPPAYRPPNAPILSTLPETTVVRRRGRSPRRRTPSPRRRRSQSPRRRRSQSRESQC

In the case of `Cc1cc(F)cc2[nH]c(C(=O)N3CCc4nc(NC(=O)C5CCOCC5)sc4C3)cc12` [Example 321, N-[5-(6-fluoro-4-methyl-1H-indole-2-carbonyl)-4H,5H,6H,7H-[1,3]thiazolo[5,4-c]pyridin-2-yl]oxane-4-carboxamide], the concentration giving a half-maximal response (EC50) in the test on HBV was < 1 µM. For the same compound, on HBV core protein, the IC50 was < 5 µM.
For `Nc1nc2c(s1)CN(C(=O)c1cc3c(C(F)(F)F)cccc3[nH]1)CC2` [Example 146, 5-(4-(trifluoromethyl)-1H-indole-2-carbonyl)-4H,5H,6H,7H-[1,3]thiazolo[5,4-c]pyridin-2-amine] the same measures were < 1 µM and < 5 µM.
The matching figures for `Cc1cc(F)cc2[nH]c(C(=O)N3CCc4nc(NCC5(O)CCC5)sc4C3)cc12` [Example 312, 1-({[5-(6-fluoro-4-methyl-1H-indole-2-carbonyl)-4H,5H,6H,7H-[1,3]thiazolo[5,4-c]pyridin-2-yl]amino}methyl)cyclobutan-1-ol]: < 1 µM and < 5 µM.
For `O=C(c1cc2ccccc2[nH]1)N1CCc2nc(NC[C@@H]3COC[C@@H]3O)sc2C1` [Example 241, (3R,4R)-4-({[5-(1H-indole-2-carbonyl)-4H,5H,6H,7H-[1,3]thiazolo[5,4-c]pyridin-2-yl]amino}methyl)oxolan-3-ol] the same measures were < 1 µM and < 5 µM.
As for `Nc1nc2c(s1)CN(C(=O)c1cc3c(F)cc(F)c(F)c3[nH]1)CC2` [Example 84, 5-(4,6,7-trifluoro-1H-indole-2-carbonyl)-4H,5H,6H,7H-[1,3]thiazolo[5,4-c]pyridin-2-amine], the EC50 in the test with HBV was < 1 µM. Also, the IC50 at HBV core protein was < 5 µM.
For `COC1COCCC1Nc1nc2c(s1)CN(C(=O)c1cc3ccccc3[nH]1)CC2` (stereo not shown) [Example 231, 5-(1H-indole-2-carbonyl)-N-(3-methoxyoxan-4-yl)-4H,5H,6H,7H-[1,3]thiazolo[5,4-c]pyridin-2-amine] the same measures were < 1 µM and 5 to 10 µM.
The matching figures for `CN(C)c1nc2c(s1)CN(C(=O)c1cc3c(Cl)cc(F)cc3[nH]1)CC2` [Example 209, 5-(4-chloro-6-fluoro-1H-indole-2-carbonyl)-N,N-dimethyl-4H,5H,6H,7H-[1,3]thiazolo[5,4-c]pyridin-2-amine]: 1 to 10 µM and 5 to 10 µM.
For `CCc1cccc2[nH]c(C(=O)N3CCc4nc(NC(=O)C5CCOCC5)sc4C3)cc12` [Example 334, N-[5-(4-ethyl-1H-indole-2-carbonyl)-4H,5H,6H,7H-[1,3]thiazolo[5,4-c]pyridin-2-yl]oxane-4-carboxamide] the same measures were < 1 µM and < 5 µM.
Consider `Cc1ccc(F)c2[nH]c(C(=O)N3CCc4nc(NCC5CCOC5)sc4C3)cc12` (stereo not shown) [Example 114, 5-(7-fluoro-4-methyl-1H-indole-2-carbonyl)-N-[(oxolan-3-yl)methyl]-4H,5H,6H,7H-[1,3]thiazolo[5,4-c]pyridin-2-amine], for which the concentration for a half-maximal effect (EC50) with HBV is < 1 µM. On HBV core protein, the IC50 was in the range of 5 to 10 µM.
The matching figures for `Cc1cccc2[nH]c(C(=O)N3CCc4nc(N(C)C)sc4C3)cc12` [Example 88, N,N-dimethyl-5-(4-methyl-1H-indole-2-carbonyl)-4H,5H,6H,7H-[1,3]thiazolo[5,4-c]pyridin-2-amine]: 1 to 10 µM and < 100 µM.
For `O=C(c1cc2c(F)cc(F)cc2[nH]1)N1CCc2nc(NCC3(O)CCC3)sc2C1` [Example 314, 1-({[5-(4,6-difluoro-1H-indole-2-carbonyl)-4H,5H,6H,7H-[1,3]thiazolo[5,4-c]pyridin-2-yl]amino}methyl)cyclobutan-1-ol] the same measures were < 1 µM and < 5 µM.
The matching figures for `N#Cc1nc2c(s1)CN(C(=O)c1cc3ccccc3[nH]1)CC2` [Example 203, 5-(1H-indole-2-carbonyl)-4H,5H,6H,7H-[1,3]thiazolo[5,4-c]pyridine-2-carbonitrile]: < 100 µM and < 100 µM.
`CCOCC(=O)Nc1nc2c(s1)CN(C(=O)c1cc3ccccc3[nH]1)CC2` [Example 4, 2-ethoxy-N-[5-(1H-indole-2-carbonyl)-4H,5H,6H,7H-[1,3]thiazolo[5,4-c]pyridin-2-yl]acetamide]: the EC50 in the test with HBV is < 1 µM. In addition, the IC50 on HBV core protein is < 5 µM.
For `COc1nc2c(s1)CN(C(=O)c1cc3ccccc3[nH]1)CC2` [Example 151, 2-{2-methoxy-4H,5H,6H,7H-[1,3]thiazolo[5,4-c]pyridine-5-carbonyl}-1H-indole] the same measures were 1 to 10 µM and < 100 µM.
For `CCc1cc(F)cc2[nH]c(C(=O)N3CCc4nc(NC(=O)C5CCOCC5)sc4C3)cc12` [Example 403, N-[5-(4-ethyl-6-fluoro-1H-indole-2-carbonyl)-4H,5H,6H,7H-[1,3]thiazolo[5,4-c]pyridin-2-yl]oxane-4-carboxamide] the same measures were < 1 µM and < 5 µM.
For `Nc1nc2c(s1)CN(C(=O)c1cc3c(F)cc(Cl)cc3[nH]1)CC2` [Example 147, 5-(6-chloro-4-fluoro-1H-indole-2-carbonyl)-4H,5H,6H,7H-[1,3]thiazolo[5,4-c]pyridin-2-amine] the same measures were < 1 µM and < 5 µM.
Consider `O=C(c1cc2ccccc2[nH]1)N1CCc2nc(NCC3CCCOC3)sc2C1` (stereo not shown) [Example 270, 5-(1H-indole-2-carbonyl)-N-[(oxan-3-yl)methyl]-4H,5H,6H,7H-[1,3]thiazolo[5,4-c]pyridin-2-amine], for which the EC50 in the test on HBV was < 1 µM. On HBV core protein, the IC50 is < 5 µM.
Regarding `O=C(c1cc2ccccc2[nH]1)N1CCc2nc(NCCCO)sc2C1` [Example 129, 3-{[5-(1H-indole-2-carbonyl)-4H,5H,6H,7H-[1,3]thiazolo[5,4-c]pyridin-2-yl]amino}propan-1-ol], in the test on HBV, the concentration for a half-maximal effect (EC50) was < 1 µM. In addition, the IC50 at HBV core protein was < 5 µM.
Turning to `CC(O)c1cc(F)cc2[nH]c(C(=O)N3CCc4nc(NCC5CCOC5)sc4C3)cc12` (stereo not shown) [Example 258, 1-[6-fluoro-2-(2-{[(oxolan-3-yl)methyl]amino}-4H,5H,6H,7H-[1,3]thiazolo[5,4-c]pyridine-5-carbonyl)-1H-indol-4-yl]ethan-1-ol], in the test on HBV, the EC50 lay within 1 to 10 µM. The IC50 at HBV core protein was < 100 µM.
For `Cc1cccc2[nH]c(C(=O)N3CCc4nc(NCC5CCOC5)sc4C3)cc12` (stereo not shown) [Example 124, 5-(4-methyl-1H-indole-2-carbonyl)-N-[(oxolan-3-yl)methyl]-4H,5H,6H,7H-[1,3]thiazolo[5,4-c]pyridin-2-amine] the same measures were < 1 µM and < 5 µM.
For `Cc1ccc(F)c2[nH]c(C(=O)N3CCc4nc(N)sc4C3)cc12` [Example 86, 5-(7-fluoro-4-methyl-1H-indole-2-carbonyl)-4H,5H,6H,7H-[1,3]thiazolo[5,4-c]pyridin-2-amine] the same measures were < 1 µM and < 5 µM.
For `O=C(c1cc2ccccc2[nH]1)N1CCc2nc(NCC3CCNC3)sc2C1` (stereo not shown) [Example 389, 5-(1H-indole-2-carbonyl)-N—[(pyrrolidin-3-yl)methyl]-4H,5H,6H,7H-[1,3]thiazolo[5,4-c]pyridin-2-amine] the same measures were 1 to 10 µM and < 5 µM.
As to `O=C(c1cc2c(F)c(F)ccc2[nH]1)N1CCc2nc(NC3(CO)CCC3)sc2C1` [Example 222, (1-{[5-(4,5-difluoro-1H-indole-2-carbonyl)-4H,5H,6H,7H-[1,3]thiazolo[5,4-c]pyridin-2-yl]amino}cyclobutyl)methanol], the EC50 in the test with HBV is < 1 µM. Moreover, the IC50 on HBV core protein was < 5 µM.
The matching figures for `O=C(c1cc2ccccc2[nH]1)N1CCc2nc(N3CCOCC3)sc2C1` [Example 166, 2-[2-(morpholin-4-yl)-4H,5H,6H,7H-[1,3]thiazolo[5,4-c]pyridine-5-carbonyl]-1H-indole]: 1 to 10 µM and < 100 µM.
The matching figures for `O=C(c1cc2c(Cl)cc(F)cc2[nH]1)N1CCc2nc(NCC3(CO)CC3)sc2C1` [Example 60, [1-({[5-(4-chloro-6-fluoro-1H-indole-2-carbonyl)-4H,5H,6H,7H-[1,3]thiazolo[5,4-c]pyridin-2-yl]amino}methyl)cyclopropyl]methanol]: < 1 µM and < 5 µM.
Regarding `Nc1nc2c(s1)CN(C(=O)c1[nH]c3ccccc3c1F)CC2` [Example 220, 5-(3-fluoro-1H-indole-2-carbonyl)-4H,5H,6H,7H-[1,3]thiazolo[5,4-c]pyridin-2-amine], in the test on HBV, the EC50 was 1 to 10 µM. The IC50 at HBV core protein was < 100 µM.
For `O=C(c1cc2ccccc2[nH]1)N1CCc2nc(NCC(O)CO)sc2C1` (stereo not shown) [Example 208, 3-{[5-(1H-indole-2-carbonyl)-4H,5H,6H,7H-[1,3]thiazolo[5,4-c]pyridin-2-yl]amino}propane-1,2-diol] the same measures were < 1 µM and < 5 µM.
The matching figures for `O=C(c1cc2c(F)cc(F)cc2[nH]1)N1CCc2nc(NC3(CO)CCC3)sc2C1` [Example 218, (1-{[5-(4,6-difluoro-1H-indole-2-carbonyl)-4H,5H,6H,7H-[1,3]thiazolo[5,4-c]pyridin-2-yl]amino}cyclobutyl)methanol]: < 1 µM and 5 to 10 µM.
The matching figures for `Nc1nc2c(s1)CCN(C(=O)c1cc3ccccc3[nH]1)CC2` [Example 25, 6-(1H-indole-2-carbonyl)-4H,5H,6H,7H,8H-[1,3]thiazolo[4,5-d]azepin-2-amine]: < 100 µM and < 100 µM.
